Measured values taken from US10758534B2 (Vertex Pharmaceuticals Incorporated, priority 2014, dated 2020).

Target: T1, F508del (Homo sapiens, UniProt P13569, DEL508-508)
T1 construct: expressed in transfected cells
Test: Protocol 1: membrane potential optical assay (FLIPR III, voltage sensing dye), identification of potentiator compounds
Format: cell-based
Details: Table 3, compounds of Table 1
How it was run: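 Read-out: change in voltage-sensing dye fluorescence (FLIPR III) as a measure of F508del conductance. Temperature-corrected (27° C, 24 hrs) NIH 3T3 cells expressing F508del are pretreated with potentiators, dye-loaded, then stimulated with forskolin under a chloride ion gradient using chloride-free gluconate bath.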

T1 sequence (P13569 with tags, fused parts or gaps DEL508-508): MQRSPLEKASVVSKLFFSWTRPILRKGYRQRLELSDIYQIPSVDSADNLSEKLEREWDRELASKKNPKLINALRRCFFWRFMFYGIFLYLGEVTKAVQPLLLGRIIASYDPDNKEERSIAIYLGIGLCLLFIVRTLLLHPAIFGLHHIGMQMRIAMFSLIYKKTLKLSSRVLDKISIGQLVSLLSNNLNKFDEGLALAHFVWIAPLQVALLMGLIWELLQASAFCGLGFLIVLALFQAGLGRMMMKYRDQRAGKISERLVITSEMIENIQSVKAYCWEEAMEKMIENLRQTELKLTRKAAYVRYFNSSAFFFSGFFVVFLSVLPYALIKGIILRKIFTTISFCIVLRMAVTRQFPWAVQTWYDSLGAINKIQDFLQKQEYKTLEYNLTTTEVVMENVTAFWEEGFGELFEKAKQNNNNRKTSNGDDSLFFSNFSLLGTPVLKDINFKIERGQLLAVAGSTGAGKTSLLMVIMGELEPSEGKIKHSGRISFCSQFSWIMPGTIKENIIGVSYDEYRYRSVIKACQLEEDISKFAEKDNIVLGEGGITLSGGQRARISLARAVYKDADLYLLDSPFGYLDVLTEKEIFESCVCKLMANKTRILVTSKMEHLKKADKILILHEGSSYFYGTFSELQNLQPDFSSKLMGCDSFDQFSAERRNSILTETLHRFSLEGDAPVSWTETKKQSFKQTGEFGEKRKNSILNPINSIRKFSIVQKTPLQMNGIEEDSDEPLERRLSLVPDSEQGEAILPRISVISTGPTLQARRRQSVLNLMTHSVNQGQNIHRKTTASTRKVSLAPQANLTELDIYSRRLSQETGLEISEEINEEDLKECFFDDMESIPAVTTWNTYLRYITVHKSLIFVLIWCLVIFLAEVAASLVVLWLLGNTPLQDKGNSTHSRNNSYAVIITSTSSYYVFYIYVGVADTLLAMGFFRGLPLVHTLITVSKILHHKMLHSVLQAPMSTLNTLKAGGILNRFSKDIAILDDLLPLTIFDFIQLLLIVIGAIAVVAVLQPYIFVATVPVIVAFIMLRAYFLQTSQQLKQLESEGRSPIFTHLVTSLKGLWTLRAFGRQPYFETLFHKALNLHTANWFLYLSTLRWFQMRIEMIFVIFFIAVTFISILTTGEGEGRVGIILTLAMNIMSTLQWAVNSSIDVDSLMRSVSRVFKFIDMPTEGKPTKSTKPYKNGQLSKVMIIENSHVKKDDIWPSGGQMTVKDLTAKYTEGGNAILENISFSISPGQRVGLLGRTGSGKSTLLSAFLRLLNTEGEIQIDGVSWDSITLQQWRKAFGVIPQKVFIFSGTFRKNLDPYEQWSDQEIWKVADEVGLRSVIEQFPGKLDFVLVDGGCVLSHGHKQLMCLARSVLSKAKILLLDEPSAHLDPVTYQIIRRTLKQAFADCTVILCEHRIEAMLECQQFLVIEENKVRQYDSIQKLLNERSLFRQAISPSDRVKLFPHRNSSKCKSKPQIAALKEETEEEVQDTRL

Row | EC30 | Structure (SMILES)
1 | +++ (“+++” means <3 uM) | CC(C)c1cccc(-c2ccc(C(=O)NS(=O)(=O)c3cccnc3N)c(N3C[C@@H](C)CC3(C)C)n2)c1 [Compound 1991, N-[(2-amino-3-pyridyl)sulfonyl]-6-(3-isopropylphenyl)-2-[(4S)-2,2,4-trimethylpyrrolidin-1-yl]pyridine-3-carboxamide]
2 | +++ (“+++” means <3 uM) | CC1CN(c2ncccc2C(=O)NS(=O)(=O)c2cccc(OCc3ccsc3)n2)C(C)(C)C1 (stereo not shown) [Compound 1992, N—[[6-(3-thienylmethoxy)-2-pyridyl]sulfonyl]-2-(2,2,4-trimethylpyrrolidin-1-yl)pyridine-3-carboxamide]
3 | +++ (“+++” means <3 uM) | COc1cccc(OC)c1-c1ccc(C(=O)NS(=O)(=O)c2cccnc2N)c(N2C[C@@H](C)CC2(C)C)n1 [Compound 1994, N-[(2-amino-3-pyridyl)sulfonyl]-6-(2,6-dimethoxyphenyl)-2-[(4S)-2,2,4-trimethylpyrrolidin-1-yl]pyridine-3-carboxamide]

Row | Structure (SMILES) | EC30
4 | CC(C)COc1cc(F)cc(-c2ccc(C(=O)NS(=O)(=O)c3cccc(N)n3)c(N3CC(C)CCC3(C)C)n2)c1 (stereo not shown) [Compound 1995, N-[(6-amino-2-pyridyl)sulfonyl]-6-(3-fluoro-5-isobutoxy-phenyl)-2-(2,2,5-trimethyl-1-piperidyl)pyridine-3-carboxamide] | +++ (“+++” means <3 uM)
